Measured values taken from ChEMBL document CHEMBL4823274, “Discovery of chiral N-2'-aryletheryl-1'-alkoxy-ethyl substituted arylisoquinolones with anti-inflammatory activity from the nucleophilic addition reactions of the thiophenols and oxazolinium” (Eur J Med Chem, 2021).
Calls of active or inactive are those of the source. No cut-off for these calls is given here.

Tests used:
[1] = tested on: Mus musculus; assay: Antiinflammatory activity against DSS-induced ulcerative colitis C57BL/6J mouse model assessed as reduction in fecal occult blood at 30 mg/kg, po administered daily via gavage and measured for 11 days; assay type: functional, organism-based; conditions: time 11.0 day
[2] = molecular target: T1, Estrogen receptor beta (Homo sapiens, UniProt Q92731); assay: Binding affinity to human ERbeta LBD measured after 2 hrs by competitive fluorometric binding assay
T1 sequence (Q92731 whole entry, the tested form may be a part): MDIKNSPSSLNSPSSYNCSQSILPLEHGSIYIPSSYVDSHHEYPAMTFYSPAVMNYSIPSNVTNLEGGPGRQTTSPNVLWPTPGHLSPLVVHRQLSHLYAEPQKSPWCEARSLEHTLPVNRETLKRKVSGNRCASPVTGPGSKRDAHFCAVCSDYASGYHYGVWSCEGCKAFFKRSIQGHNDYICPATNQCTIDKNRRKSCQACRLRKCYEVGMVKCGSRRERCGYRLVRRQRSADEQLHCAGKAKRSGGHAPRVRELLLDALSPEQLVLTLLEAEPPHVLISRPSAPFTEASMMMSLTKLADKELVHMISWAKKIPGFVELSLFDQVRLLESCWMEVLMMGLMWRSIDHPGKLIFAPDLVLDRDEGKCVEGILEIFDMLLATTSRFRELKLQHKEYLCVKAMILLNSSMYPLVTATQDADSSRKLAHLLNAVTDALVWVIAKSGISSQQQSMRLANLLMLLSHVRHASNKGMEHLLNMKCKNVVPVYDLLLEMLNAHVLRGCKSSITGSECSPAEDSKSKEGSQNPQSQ

[3] = tested on: Mus musculus; assay: Antiinflammatory activity against DSS-induced ulcerative colitis C57BL/6J mouse model assessed as reduction in body weight loss at 30 mg/kg, po administered daily via gavage and measured for 11 days; assay type: functional, organism-based; conditions: time 11.0 day
[4] = molecular target: T2, Estrogen receptor (Homo sapiens) (UniProt P03372); assay: Binding affinity to human ERalpha LBD measured after 2 hrs by competitive fluorometric binding assay relative to 17beta-estradiol
T2 sequence (whole entry): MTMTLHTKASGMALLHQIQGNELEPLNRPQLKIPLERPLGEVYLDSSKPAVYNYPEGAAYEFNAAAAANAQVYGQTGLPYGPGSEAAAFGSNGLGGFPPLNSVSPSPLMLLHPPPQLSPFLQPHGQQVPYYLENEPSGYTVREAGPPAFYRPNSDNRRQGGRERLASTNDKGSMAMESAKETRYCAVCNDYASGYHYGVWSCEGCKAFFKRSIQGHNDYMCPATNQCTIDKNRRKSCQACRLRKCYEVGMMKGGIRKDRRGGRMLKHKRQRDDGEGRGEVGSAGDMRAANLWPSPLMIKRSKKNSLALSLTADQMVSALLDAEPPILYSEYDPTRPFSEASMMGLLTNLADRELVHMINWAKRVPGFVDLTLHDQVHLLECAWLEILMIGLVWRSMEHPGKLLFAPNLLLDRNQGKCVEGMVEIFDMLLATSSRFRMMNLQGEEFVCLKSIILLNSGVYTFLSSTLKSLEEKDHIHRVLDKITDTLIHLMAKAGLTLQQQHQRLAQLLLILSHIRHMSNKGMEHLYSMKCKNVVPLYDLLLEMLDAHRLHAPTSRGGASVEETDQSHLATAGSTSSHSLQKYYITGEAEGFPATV

[5] = species on record: Homo sapiens; assay: Selectivity ratio of relative binding affinity for human ERalpha LBD to relative binding affinity for human ERbeta LBD
[6] = molecular target: T1, Estrogen receptor beta; assay: Binding affinity to human ERbeta LBD measured after 2 hrs by competitive fluorometric binding assay relative to 17beta-estradiol
[7] = tested on: RAW264.7; assay: Antiinflammatory activity against LPS-stimulated mouse RAW264.7 cells assessed inhibition of TNFalpha release incubated for 24 hrs in presence of LPS by ELISA; assay type: functional, cell-based; conditions: RAW264.7, 24 h
[8] = Cytotoxicity against mouse RAW264.7 cells assessed as reduction in cell viability incubated for 24 hrs by CCK8 assay; assay type: cell-based
[9] = species on record: Homo sapiens; assay: Selectivity ratio of Ki for human ERalpha LBD to Ki for human ERbeta LBD
[10] = molecular target: T3, Estrogen receptor (Homo sapiens, UniProt P03372); assay: Binding affinity to human ERalpha LBD measured after 2 hrs by competitive fluorometric binding assay
T3 sequence (P03372 whole entry): T2 sequence (whole entry)

[11] = tested on: Mus musculus; assay: Antiinflammatory activity against DSS-induced ulcerative colitis C57BL/6J mouse model assessed as restoration of normal stool consistency at 30 mg/kg, po administered daily via gavage and measured for 11 days; assay type: functional, organism-based; conditions: time 11.0 day
[12] = tested on: Mus musculus; assay: Antiinflammatory activity against DSS-induced ulcerative colitis C57BL/6J mouse model assessed as reduction in disease activity index at 30 mg/kg, po administered daily via gavage and measured for 11 days; assay type: functional, organism-based; conditions: time 11.0 day
[13] = Cytotoxicity against mouse RAW264.7 cells assessed as cell viability at 0.5 uM incubated for 24 hrs by CCK8 assay; assay type: cell-based; conditions: read-out: Activity
[14] = tested on: RAW264.7; assay: Antiinflammatory activity against LPS-stimulated mouse RAW264.7 cells assessed inhibition of TNFalpha release at 0.5 uM incubated for 24 hrs in presence of LPS by ELISA; assay type: functional

| Compound | viability at 24 h, 0.5 µM [13] [%] | inhibition at 0.5 µM [14] [%] | also measured |
| --- | --- | --- | --- |
| COc1ccc2cc(-c3ccc4c(c3)OCO4)n([C@@H](COc3ccc([N+](=O)[O-])cc3)OC)c(=O)c2c1OC |  |  | Activity [1]: Active; Ki [2]: 0.761 µM; Activity [3]: Active; RBA [4]: 0.24%; Ratio [5]: 0.23; RBA [6]: 1.04%; IC50 [7]: 0.014 µM; CC50 at 24 h [8]: 1.82 µM; Ratio Ki [9]: 3; Ki [10]: 2.32 µM; Activity [11]: Active; Activity [12]: Active |
| COc1ccc2cc(-c3ccc4c(c3)OCO4)n(C(CSc3ccccc3)OC)c(=O)c2c1OC (centres undefined) | 85.4 | 49.4 |  |
| COc1ccc2cc(-c3ccc4c(c3)OCO4)n([C@H](CSc3ccc([N+](=O)[O-])cc3)OC)c(=O)c2c1OC |  |  | IC50 [7]: > 2.5 µM; CC50 at 24 h [8]: > 2.5 µM |
| COc1ccc2cc(-c3ccc4c(c3)OCO4)n(C(CSc3ccc(C(F)(F)F)cc3)OC)c(=O)c2c1OC (centres undefined) | 98 | 72.9 |  |
| COc1ccc2cc(-c3ccc4c(c3)OCO4)n(C(CSc3ccc([N+](=O)[O-])cc3)OC)c(=O)c2c1OC (centres undefined) | 80.1 | 87.8 |  |
| COc1ccc(SCC(OC)n2c(-c3ccc4c(c3)OCO4)cc3ccc(OC)c(OC)c3c2=O)cc1 (centres undefined) | 80.8 | -3.4 |  |
| COc1ccc2cc(-c3ccc4c(c3)OCO4)n(C(CSc3ccccc3Br)OC)c(=O)c2c1OC (centres undefined) | 80.7 | 80.7 |  |
| COc1ccc2cc(-c3ccc4c(c3)OCO4)n(C(CSc3nc(C)cc(C)n3)OC)c(=O)c2c1OC (centres undefined) | 101 | 69.7 |  |
| COc1ccc2cc(-c3ccc4c(c3)OCO4)n(C(CSc3ccc(F)cc3)OC)c(=O)c2c1OC (centres undefined) | 77.8 | 77.4 |  |
| COc1ccc2cc(-c3ccc4c(c3)OCO4)n([C@H](COc3ccc([N+](=O)[O-])cc3)OC)c(=O)c2c1OC |  |  | Ki [2]: 25.6 µM; RBA [4]: 0.03%; Ratio [5]: 1; RBA [6]: 0.03%; IC50 [7]: > 10 µM; CC50 at 24 h [8]: > 2.5 µM; Ki [10]: 17.1 µM |
| COc1ccc2cc(-c3ccc4c(c3)OCO4)n([C@@H](CSc3ccc([N+](=O)[O-])cc3)OC)c(=O)c2c1OC |  |  | IC50 [7]: 0.056 µM; CC50 at 24 h [8]: 7.04 µM |
| COc1ccc2cc(-c3ccc4c(c3)OCO4)n(C(CSc3cccc(Br)c3)OC)c(=O)c2c1OC (centres undefined) | 57 | 36.1 |  |
| COc1ccc2cc(-c3ccc4c(c3)OCO4)n(C(CSc3ccc(Br)cc3)OC)c(=O)c2c1OC (centres undefined) | 70.9 | 84.5 |  |
| COc1ccc2cc(-c3ccc4c(c3)OCO4)n(C(CSc3cc(C(F)(F)F)cc(C(F)(F)F)c3)OC)c(=O)c2c1OC (centres undefined) | 82.8 | 78.3 |  |
| COc1ccc2cc(-c3ccc4c(c3)OCO4)n(C(CSc3ccc(C)cc3)OC)c(=O)c2c1OC (centres undefined) | 70.4 | 79.6 |  |
| COc1ccc2cc(-c3ccc4c(c3)OCO4)n(C(CSc3cccc(C(F)(F)F)c3)OC)c(=O)c2c1OC (centres undefined) | 93.3 | 69.2 |  |
| COc1ccc2cc3[n+](cc2c1OC)CCc1cc2c(cc1-3)OCO2 [BERBERINE] | 129 | 4.1 |  |
